Data published in PMC8303886, “Polyphenylglyoxamide-Based Amphiphilic Small Molecular Peptidomimetics as Antibacterial Agents with Anti-Biofilm Activity” (International Journal of Molecular Sciences, 2021).
“And” between values parts separate entries of the source, which are not always exact repeats. Equal entries are not always repeated. Where two headings read alike, the source gives them in different places.

Key:
E. coli (K12) = assay: Minimum inhibitory concentration (MIC) assay against E. coli; format: cell-based; conditions: Escherichia coli
[1] = test system: S. aureus biofilm formation; assay: Inhibition of S. aureus biofilm formation (crystal violet staining); format: cell-based, Staphylococcus aureus
Description: In this assay, S. aureus was incubated in the presence of different concentrations of the tested peptidomimetics under a static condition. After overnight incubation, planktonic bacteria were removed, and the remaining biofilms were quantified, using crystal violet staining.
S. aureus was cultured in Muller Hinton broth (MHB; Oxoid) at 37 °C with shaking at 120 rpm for 24 h. The resulting bacterial culture was washed twice with MHB with centrifugation after each wash. The bacterial solution was then diluted with fresh MHB to a turbidity of OD660 = 0.1 in MHB (equivalent to 10^8 colony forming unit (CFU)/mL of bacteria), followed by diluting to 10^6 CFU/mL in MHB. A total of 100 µL of the bacterial solution was added to wells of a 96-well plate (Costar; Sigma-Aldrich, St. Louis, MO, USA) containing 100 µL serially diluted peptidomimetics. After incubation at 37 °C for 24 h, loosely bound cells were washed away with 1× phosphate-buffered saline (PBS, pH 7.4). Biofilms adhered on the plate substratum were quantified, using crystal violet staining as described previously. Untreated bacteria were used as a negative control, where the percentage of biofilm mass reflected 100% biofilm growth. The experiment was performed in triplicate.

[2] = test system: pre-established S. aureus biofilms; assay: Disruption of pre-established S. aureus biofilms (crystal violet assay); format: cell-based, Staphylococcus aureus
Description: As bacterial biofilms are one of the major challenges in treating bacterial infection, the ability of the synthesised peptidomimetics to disrupt pre-established biofilms was investigated.
(§1) Bacterial cultures (S. aureus and E. coli) were cultured in MHB at 37 °C with shaking at 120 rpm for 24 h. The resulting bacterial culture was washed twice with MHB with centrifugation after each wash. The bacterial solution was then diluted with fresh MHB to a turbidity of OD660 = 0.1 in MHB (equivalent to 10^8 colony forming unit (CFU)/mL of bacteria), followed by diluting to 10^6 CFU/mL in MHB. A total of 200 µL of the bacterial solution was dispensed to wells in a flat-bottom 96-well plate (Costar). The biofilm was then grown in the plate at 37 °C for 24 h. After incubation, loosely bound cells were washed away with 1× phosphate-buffered saline (PBS, pH 7.4). The biofilms were then supplemented with different concentrations of peptidomimetics dissolved in DMSO and incubated at 37 °C with shaking at 120 rpm for a further 24 h. Biofilms adhered on the plate substratum were quantified, using crystal violet staining as described previously. The experiment was performed in triplicate.

P. aeruginosa (PAO1) = assay: Minimum inhibitory concentration (MIC) assay against P. aeruginosa; format: cell-based; conditions: Pseudomonas aeruginosa
S. aureus (SA38) = assay: Minimum inhibitory concentration (MIC) assay against S. aureus; format: cell-based, Staphylococcus aureus; conditions: Staphylococcus aureus
Haemolysis assay = format: cell-based; conditions: washed human red blood cells
Description: A total of 20 mL of human blood collected in EDTA coated tubes was transferred into a 50 mL centrifuge tube and centrifuged at 500× g (700) for 5 min. The supernatant plasma was discarded and an equal volume of 1× PBS was added. The washing was repeated five times with cells mixed by inversion. The washed pallet was then resuspended in 1:10 with PBS to yield an RBC concentration of ~5 × 10^8 RBC/mL. The peptidomimetics were serially diluted with PBS, with final concentrations ranging from 8 to 500 µM. Milli-Q water and 1× PBS were used as positive and negative controls. The cells were then incubated at 37 °C for 3 h. Following incubation, the suspension was centrifuged at 1100× g for 5 min. The final optical density was measured at 540 nm. The percentage of haemolysis was calculated, using the following equation. % haemolysis=(absorbance of test sample−absorbance of diluent)/(absorbance of positive control−absorbance of diluent)×100%

[3] = test system: S. aureus cytoplasmic membrane; assay: Cytoplasmic membrane permeability assay (diSC3-5 dye release); format: cell-based, Staphylococcus aureus; conditions: 1× and 2× MIC, read up to 15 min
From the text: This dye readily partitions into and aggregates in bacterial cell membranes, quenching its own fluorescence. However, structural damage to the bacterial cell membrane causes a loss in the membrane potential, which results in the leakage of dye from the bacterial cell membrane into the medium and an increase in fluorescence intensity. By detecting changes in fluorescence intensity, the integrity of the bacterial cytoplasmic membrane can be monitored.
Membrane potential sensitive dye diSC3–5 (3,3′-dipropylthiadicarbocyanine iodide), which penetrates inside bacterial cells depending on the membrane potential gradient of the cytoplasmic membrane, was used to determine the bacterial cytoplasmic membrane permeability following the procedure previously described with slight modification. Bacteria (S. aureus) were incubated in MHB with shaking at 37 °C for 16 h. After incubation, the bacteria were washed with 5 mM HEPES, supplemented with 20 mM glucose at pH 7.2 and diluted in the same buffer to an OD600 0.05–0.06 (equivalent to a final concentration of 10^7 CFU/mL bacteria). The diSC3–5 dye was added at 4 μM to the bacterial suspension. […] Fluorescence due to the release of dye was measured with a FLUOstar Omega (BMG Labtech) microplate reader at 5 min intervals at an excitation wavelength of 621 nm and an emission wavelength of 670 nm.

[4] = test system: MRC-5 normal human lung fibroblasts; assay: MTT cytotoxicity assay; format: cell-based; conditions: Homo sapiens, MRC5, 72 h, 72 h drug incubation, read-out: IC50 against MRC-5 normal human lung fibroblasts
Description: The IC50 values of the tested peptidomimetics were determined from a dose-response curve. […] The therapeutic indices for each tested peptidomimetic against Gram-positive S. aureus and Gram-negative E. coli were calculated by dividing the IC50 value against human cells by the corresponding MIC value (Table 2).
The toxicity of the peptidomimetics against normal human lung fibroblasts MRC-5 cells was measured, using an MTT (3-(4,5-dimethylthiazol-2-yl)-2,5-diphenyltetrazolium bromide) (Sigma Aldrich, St. Louis, MO, USA) colorimetric assay. The cells were cultured in minimal essential medium (MEM, Invitrogen) containing 10% foetal bovine serum (FBS). The cells were maintained at 37 °C in 5% CO2 as an adherent monolayer and was passaged upon reaching confluence by standard cell culture techniques. MRC-5 cells were seeded at 5000 cells/well in 96-well plates to ensure full confluence (quiescence) and left overnight to adhere to the plate wells. The adherent cells were treated with 1–500 μM of compounds by dissolving in DMSO and serially diluting with media. TY-01 was used as the positive control. The final concentration of DMSO was 0.5% (v/v). After the 72 h drug incubation, […] stock MTT solution (5 mg/mL) was added, and the cells were incubated for another 3.5–4 h. The MTT solution containing media was carefully aspirated without displacing the purple crystals from the bottom, and […] acid-isopropanol was added to all wells and mixed slowly by shaking with an orbital shaker to dissolve the dark blue crystals. […] The determination of IC50 values was performed using GraphPad Prism 7 (GraphPad, San Diego, CA, USA). Each experiment was performed in triplicate and was repeated in three independent experiments.

[5] = test system: pre-established E. coli biofilms; assay: Disruption of pre-established E. coli biofilms (crystal violet assay); format: cell-based, Escherichia coli; conditions: 2× MIC, 24 h treatment (64 μM for 17c)
Description: as §1

[6] = test system: pre-established S. aureus biofilms; design: method as in PMID 27405275; conditions: 4× MIC; cited from earlier work
[7] = highest concentration tested 250 μM
[8] = S. aureus SA38, read-out: MIC S. aureus
[9] = in trypticase soy broth (TSB), Mueller Hinton broth (MHB) or cationic adjusted MHB, read-out: MIC S. aureus in different growth media

Compound	MIC (E. coli (K12))	inhibition of S. aureus biofilm formation ([1]; 0.5× MIC (sub-MIC)) [%]	disruption of pre-established S. aureus biofilms ([2]; 1× MIC, 24 h treatment)	MIC (P. aeruginosa (PAO1)) [µg/mL]	MIC (P. aeruginosa (PAO1); [7]) [µM]	MIC (S. aureus (SA38); [8])	MIC (S. aureus (SA38); [9])	hemolysis at 3 h, 32 µM (Haemolysis assay) [%]	S. aureus cytoplasmic membrane disruption (increase in fluorescence intensity) [3]	IC50 [4]	disruption of pre-established E. coli biofilms [5] [%]	inhibition of S. aureus biofilm formation ([1]; 2× MIC (16 μM for 17c)) [%]	inhibition of S. aureus biofilm formation ([1]; 4× MIC) [%]	disruption of pre-established S. aureus biofilms ([2]; 4× MIC, 24 h treatment (32 μM for 17c)) [%]	disruption of pre-established S. aureus biofilms [6]
CCCCCCCCS(=O)(=O)Nc1ccc(-c2ccc(-c3ccccc3)cc2)cc1C(=O)C(=O)NCCC[N+](C)(C)C.[I-] [Compound 16d, N,N,N-Trimethyl-3-(2-(4-(octylsulfonamido)-[1,1′:4′,1″-terphenyl]-3-yl)-2-oxoacetamido)propan-1-aminium iodide]	> 250 µM and > 180 µg/mL	35	no antibiofilm activity	> 180	> 250	4 µM and 2.9 µg/mL	4 µM and 2.9 µg/mL	11	least active compound	53.7 µM and 38.6 µg/mL	–	–	–	–	–
CCCCCCCCCCCCS(=O)(=O)Nc1ccc(-c2ccccc2)cc1C(=O)C(=O)NCCC[N+](C)(C)C.[I-] [Compound 17c, 3-(2-(4-(Dodecylsulfonamido)-[1,1′-biphenyl]-3-yl)-2-oxoacetamido)-N,N,N-trimethylpropan-1-aminium iodide]	32 µM	56	20–36%	> 175	> 250	8 µM and 5.6 µg/mL	8 µM and 5.6 µg/mL	16	–	57.5 µM and 40.2 µg/mL	28	70	65	44	–
LL-37: cathelicidin (LL-37), antimicrobial peptide in phase IIb clinical trials for the treatment of chronic leg ulcers (LLGDFFRKSKEKIGKEFKRIVQRIKDFLRNLVPRTES; Antibacterial peptide LL-37; UniProt P49913 134-170, looked up)	–	–	–	–	–	–	–	–	–	–	–	–	–	–	about 40%
